Assay results from ChEMBL document CHEMBL5050861 (2021).
Values after ≈ are worked out from the molar mass of the structure shown.

Legend:
[1] = Stability of compound in rat microsomes assessed as half-life; assay type: ADME, Microsome
[2] = Inhibition of recombinant mouse GALK1 using ATP as substrate incubated for 1 hr and measured by Kinase-Glo assay; settings: read-out: IC50
[3] = Permeability of compound by PAMPA assay; assay type: ADME; settings: for Papp: read-out: permeability
[4] = Kinetic aqueous solubility of the compound; assay type: physicochemical; settings: buffer; read-out: Kinetic_solubility

| SMILES | half-life [1] [min] | IC50 [2] [µM] | Papp [3] [×10⁻⁶ cm/s] | solubility kinetic [4] [µg/mL] | permeability [3] |
| --- | --- | --- | --- | --- | --- |
| CC1=C(C(=O)Nc2nncs2)C2(CCCC2)N=C(Nc2nc3ccccc3o2)N1 | > 30 | 19.3 | < 1 | < 1 | – |
| CC1=C(C(=O)Nc2cc(C(=O)O)ccn2)[C@@H](c2ccc(C)cc2Cl)N=C(Nc2nc3ccc(F)cc3o2)N1 | > 30 | 6.85 | < 1 | 53.8 (≈ 101 µM) | – |
| CC1=C(C(=O)Nc2cc(-c3nn[nH]n3)ccn2)C(c2ccccc2Cl)N=C(Nc2nc3ccc(F)cc3o2)N1 (stereo not drawn) | > 30 | 7.69 | < 1 | 29.9 (≈ 54.9 µM) | – |
| CC1=C(C(=O)Nc2nncs2)C(c2nn(C)cc2Br)N=C(Nc2nc3ccccc3o2)N1 (stereo not drawn) | > 30 | 19.3 | – | 6.4 (≈ 12.4 µM) | 1044 10^-6 cm/s |
| CC1=C(C(=O)Nc2cc(C(=O)O)ccn2)C(c2ccc(-c3ccc(C)nc3)cc2Cl)N=C(Nc2nc3ccc(F)cc3o2)N1 (stereo not drawn) | > 30 | 1.22 | < 1 | > 90 | – |
| CC1=C(C(=O)Nc2cc(C(=O)O)ccn2)C(c2ccc(-c3ccc(C(F)(F)F)nc3)cc2Cl)N=C(Nc2nc3ccc(F)cc3o2)N1 (stereo not drawn) | > 30 | 3.85 | < 1 | 28.6 (≈ 42.9 µM) | – |
| O=C1CC(C(=O)NCCO)CC2=C1C(c1ccccc1Cl)N=C(Nc1nc3ccccc3o1)N2 (stereo not drawn) | > 30 | 5.44 | < 2 | 29 (≈ 60.4 µM) | – |
| COc1ccc([C@@H]2N=C(Nc3nc4cccc(N)c4o3)NC(C)=C2C(=O)Nc2cc(C(=O)O)ccn2)c(Cl)c1 | > 30 | 2.43 | < 1 | > 81 | – |
| CC1=C(C(=O)NCc2cccc(C(=O)O)c2)C(c2ccccc2Cl)N=C(Nc2nc3ccccc3o2)N1 (stereo not drawn) | > 30 | 19.3 | < 1.3 | 60.6 (≈ 117 µM) | – |
| CCn1cc(CNC(=O)C2=C(C)NC(Nc3nc4ccc(F)cc4o3)=NC2c2ccc(C)cc2Cl)cn1 (stereo not drawn) | 9.22 | 6.85 | < 21.9 | < 1 | – |
| CC1=C(C(=O)Nc2ccc(C#N)cn2)C(c2ccccc2Cl)N=C(Nc2nc3ccc(F)cc3o2)N1 (stereo not drawn) | > 30 | 13.7 | < 7.8 | < 1 | – |
| COC(=O)c1ccnc(NC(=O)C2=C(C)NC(Nc3nc4ccc(F)cc4o3)=N[C@H]2c2ccccc2Cl)c1 | 30.9 | 4.32 | < 21.9 | – | – |
| CC1=C(C(=O)Nc2ccc(O)cc2)C(c2ccccc2Cl)N=C(Nc2nc3ccccc3o2)N1 (stereo not drawn) | > 30 | 9.68 | < 14.5 | – | – |
| CC1=C(C(=O)NCc2ccccc2O)C(c2ccccc2Cl)N=C(Nc2nc3ccccc3o2)N1 (stereo not drawn) | 5.19 | 10.9 | < 19.3 | – | – |
| COC(=O)c1ccnc(NC(=O)C2=C(C)NC(Nc3nc4ccc(F)cc4o3)=N[C@@H]2c2ccccc2Cl)c1 | 24.3 | 86.3 | < 7.4 | – | – |
| CC1=C(C(=O)Nc2cc(C(=O)O)ccn2)C(c2ccc(-c3ccccc3)cc2Cl)N=C(Nc2nc3ccc(F)cc3o2)N1 (stereo not drawn) | > 30 | – | < 4.9 | < 1 | – |
| CNCCNC(=O)C1=C(C)NC(Nc2nc3ccc(F)cc3o2)=NC1c1ccccc1Cl (stereo not drawn) | – | 6.11 | > 30 | > 67 | – |
| O=C(Nc1nncs1)C1=C(C(F)(F)F)NC(Nc2nc3ccccc3o2)=NC1c1ccccc1Cl (stereo not drawn) | > 30 | 17.2 | – | 21.9 (≈ 42.1 µM) | – |
| CCn1ncc(CNC(=O)C2=C(C)NC(Nc3nc4ccc(F)c(N)c4o3)=NC2c2ccc(C)cc2Cl)c1F (stereo not drawn) | 7.04 | 1.09 | – | < 1 | – |
| CC1=C(C(=O)NCc2cnn(CC(F)(F)F)c2)C(c2ccc(C)cc2Cl)N=C(Nc2nc3ccc(F)c(N)c3o2)N1 (stereo not drawn) | 18.7 | 3.06 | – | 1.56 (≈ 2.64 µM) | – |

| SMILES | half-life [1] [min] | IC50 [2] [µM] | Papp [3] [×10⁻⁶ cm/s] | solubility kinetic [4] [µg/mL] | permeability [3] |
| --- | --- | --- | --- | --- | --- |
| COC(=O)c1ccc(CNC(=O)C2=C(C)NC(Nc3nc4ccccc4o3)=NC2c2ccccc2Cl)cc1 (stereo not drawn) | 8.49 | 8.63 | – | < 1 | – |
| CC1=C(C(=O)Nc2cc(C(N)=O)ccn2)C(c2ccccc2Cl)N=C(Nc2nc3ccc(F)cc3o2)N1 (stereo not drawn) | > 30 | 19.3 | – | 2.4 (≈ 4.62 µM) | – |
| CC1=C(C(=O)Nc2cc(C(=O)O)ccc2F)C(c2ccccc2Cl)N=C(Nc2nc3ccc(F)cc3o2)N1 (stereo not drawn) | > 30 | 6.85 | – | 35.7 (≈ 66.4 µM) | – |
| CC1=C(C(=O)Nc2cc(CO)ccn2)C(c2ccccc2Cl)N=C(Nc2nc3ccc(F)cc3o2)N1 (stereo not drawn) | > 30 | 10.9 | – | < 1 | – |
| CC1=C(C(=O)NCc2cnn(C)c2)C(c2ccccc2Cl)N=C(Nc2nc3ccc(F)cc3o2)N1 (stereo not drawn) | 26 | 12.2 | – | 13.7 (≈ 27.7 µM) | – |
| CC1=C(C(=O)Nc2ccccc2O)C(c2ccccc2Cl)N=C(Nc2nc3ccccc3o2)N1 (stereo not drawn) | 17.9 | 17.2 | – | < 1 | – |
| CC1=C(C(=O)NCc2c(C)nn(C)c2C)C(c2ccc(C)cc2Cl)N=C(Nc2nc3ccc(F)cc3o2)N1 (stereo not drawn) | 2.66 | 4.85 | – | < 1 | – |
| CC1=C(C(=O)NCc2cccc(CO)c2)C(c2ccccc2Cl)N=C(Nc2nc3ccccc3o2)N1 (stereo not drawn) | 6.57 | 12.2 | – | < 1 | – |
| COc1ccc(C2N=C(Nc3nc4cccc(N)c4o3)NC(C)=C2C(=O)Nc2cc(C(=O)O)ccn2)c(Cl)c1 (racemic) | > 30 | > 1.93 | – | > 81 | – |
| COc1ccccc1CNC(=O)C1=C(C)NC(Nc2nc3ccccc3o2)=NC1c1ccccc1Cl (stereo not drawn) | 1.4 | 12.2 | – | < 1 | – |
| CC1=C(C(=O)Nc2ccc(CO)nc2)C(c2ccccc2Cl)N=C(Nc2nc3ccccc3o2)N1 (stereo not drawn) | > 30 | 7.69 | – | < 1 | – |
| CC1=C(C(=O)Nc2nncs2)C(c2ccncc2Br)N=C(Nc2nc3ccccc3o2)N1 (stereo not drawn) | > 30 | 19.3 | – | 6.5 (≈ 12.7 µM) | – |
| CC(C)CC1=C(C(=O)Nc2nncs2)C(c2ccccc2Cl)N=C(Nc2nc3ccccc3o2)N1 (stereo not drawn) | > 30 | 17.2 | – | < 1 | – |
| CC1=C(C(=O)NCc2cnn(C)c2)[C@@H](c2ccc(C)cc2Cl)N=C(Nc2nc3cccc(N)c3o2)N1 | 7.87 | 30.6 | – | 21.9 (≈ 43.4 µM) | – |
| CN(C)C(=O)C1CC(=O)C2=C(C1)NC(Nc1nc3ccccc3o1)=NC2c1ccccc1Cl (stereo not drawn) | 20.8 | 4.32 | – | 10.8 (≈ 23.4 µM) | – |
| COC(=O)c1cc(NC(=O)C2=C(C)NC(Nc3nc4ccccc4o3)=NC2c2ccccc2Cl)ccn1 (stereo not drawn) | > 30 | 10.9 | – | < 1 | – |
| CC1=C(C(=O)NCc2cnn(Cc3ccccc3)c2)C(c2ccc(C)cc2Cl)N=C(Nc2nc3ccc(F)cc3o2)N1 (stereo not drawn) | 2.74 | 5.44 | – | < 1 | – |
| CC1=C(C(=O)Nc2nc(CO)cs2)C(c2ccccc2Cl)N=C(Nc2nc3ccccc3o2)N1 (stereo not drawn) | > 30 | 19.3 | – | < 1 | – |
| CC1=C(C(=O)Nc2cccc(C(N)=O)c2)C(c2ccccc2Cl)N=C(Nc2nc3ccccc3o2)N1 (stereo not drawn) | > 30 | 17.2 | – | < 1 | – |
